# Results as given in US20180118721A1, “PYRIMIDINE DERIVATIVES” (Merck Patent GmbH, priority 2015, published 2018).
# Assays:
# [1] = target: T1, humanMTH1 (aminoacids 42 to 197) (Homo sapiens, UniProt P36639); experiment: Binding affinities and kinetics on MTH1 surfaces by surface plasmon resonance (SPR); conditions: on MTH1
# T1 construct: humanMTH1 (aminoacids 42 to 197); His tag at the N-terminus; purchased Abnova ab99390; host or cells: E. coli
# [2] = Shake flask solubility measurement; assay type: physicochemical; conditions: aqueous buffer, thermodynamic from solid, phosphate buffer pH 7.4, 37° C.
# Experimental: Compound solubility in aqueous solution is determined by a standard method in the art, the shake flask method. Solubility measurement is performed under equilibrium conditions at pH 7.4. Samples are prepared by dissolving an excess of the test compound in a phosphate buffer (made up of 3,954 g sodium hydrogenphosphate-monohydrate, 6,024 g sodium chloride, 950 ml ultrapure water and adjusted to pH 7.4 with 0.1 M NaOH or 0.1 M HCl). These samples are shaken at 37° C. with 450 rpm (shaker: TiMix control Bühler) for 24 h in total until equilibrium is reached. After 7 hours shaking, the pH value of the sample is controlled and adjusted, if necessary. It is also checked that the sample (test compound) is available in excess. Shortly before the end of 24 h, samples are checked again for pH and precipitate. At the end of 24 h and after separation of the solid by filtration, the concentration of the compound in the filtrate is determined by liquid chromatography using […] (LC-UV).
# Sample preparation: Incubation hood: TH 15 Bühler; pH device 766 Calimatic Knick; pH electrode InLab 423 Mettler
# Chromatography Conditions:
# Column: Chromolith RP18e 100×3 mm
# Wavelength range: 190-400 nm • select a suitable evaluation wavelength
# Injection volume: Probe 5 μl and 15 μl; Standard 5 μl
# Column stove temperature: 37° C.
# Eluent A: water/formic acid (999:1; v/v)
# Eluent B: acetonitrile/formic acid (999:1; v/v)
smiles,measurement,setting,value
"CNc1cc(-c2cccc(Cl)c2Cl)nc(N)n1 [TH-287, reference compound]",residence time,[1]; calculated on the basis of the KD values,< 1 min
same,residence time,[1]; value in brackets,0.9 min
same,solubility at 24 h,[2],22 µg/mL
